This is an account of results in patent publication US10851089B2, “Matrix metalloproteinase (MMP) inhibitors and methods of use thereof” (Foresee Pharmaceuticals Co., Ltd., priority 2018, dated 2020).

Assay type in all cases: biochemical
The target in test [1] is recombinant human MMP-12 catalytic domain (Homo sapiens (Human), UniProt P39900). The experiment in a line: MMP-12 inhibitory assay (fluorogenic substrate cleavage). On the procedure:
(§1) The inhibitory effect of compounds on the rate of cleaving fluorogenic MMP substrate (Enzo, BML-P128) by recombinant human MMP-12 catalytic domain (Enzo, BML-SE138) was carried out by methods known in the art. Briefly, to each well of a 96-well black opaque plate, all the reagents were sequentially added by pipetting, and the final reaction contained 4 nM of recombinant human MMP-12 catalytic domain, 4 μM of fluorogenic MMP substrate, and various concentrations (0.15 nM to 10,000 nM) of tested compound dilutions in HEPES buffer (pH 7.5) containing 10 mM of CaCl2, 0.01% Brij® 35 (polyoxyethylene (23) lauryl ether), and 0.1 mg/ml of BSA.
(§2) The enzyme and compounds were pre-incubated on a shaker to mix in wells. After an hour of mixing, fluorogenic substrate was added to each well. Reaction without enzyme was used as a blank control in the plate. The plate was then fed into a plate reader to measure fluorescence intensity at Excitation/Emission wavelengths of 340 nm/440 nm every 10 mins for at least 1 hour at 37° C. The IC50 of each compound in MMP-12 inhibition was determined by using a readout obtained at time point 30 minutes.

The target of another test is recombinant human MMP-1 (Homo sapiens (Human), UniProt P03956). The experiment in a line: MMP selectivity assay MMP-1. The procedure:
as §1, §2
(§3) The MMP selectivity assay was performed by using other recombinant human MMPs, including MMP-1, MMP-2, MMP-3, MMP-7, MMP-8, MMP-9, MMP-10, MMP-13, and MMP-14. The IC50 of the compounds for the other recombinant human MMPs was determined as described above in Example 1, and are shown in Table 2.

For another test, the target named is recombinant human MMP-2 (Homo sapiens (Human), UniProt P08253). The experiment in a line: MMP selectivity assay MMP-2. On the procedure:
as §1, §2, §3

The next test deals with recombinant human MMP-3 (Homo sapiens (Human), UniProt P08254). The experiment in a line: MMP selectivity assay MMP-3. On the procedure:
as §1, §2, §3

In a further test the target is recombinant human MMP-7 (Homo sapiens (Human), UniProt P09237). The experiment in a line: MMP selectivity assay MMP-7. On the procedure: as §1, §2, §3
Chain of recombinant human MMP-7 (P09237 95-267): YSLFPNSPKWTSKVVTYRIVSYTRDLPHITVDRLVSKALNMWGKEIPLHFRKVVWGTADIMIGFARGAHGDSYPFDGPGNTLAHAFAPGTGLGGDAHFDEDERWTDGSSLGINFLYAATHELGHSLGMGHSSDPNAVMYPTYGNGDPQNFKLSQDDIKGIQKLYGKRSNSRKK
For the next test, the target named is recombinant human MMP-8 (Homo sapiens (Human), UniProt P22894). The experiment in a line: MMP selectivity assay MMP-8. The procedure:
as §1, §2, §3

The target in the next test is recombinant human MMP-9 (Homo sapiens (Human), UniProt P14780). The experiment in a line: MMP selectivity assay MMP-9. On the procedure:
as §1, §2, §3

Another test concerns the target recombinant human MMP-10 (Homo sapiens (Human), UniProt P09238). The experiment in a line: MMP selectivity assay MMP-10. On the procedure:
as §1, §2, §3

The target in another test is recombinant human MMP-13 (Homo sapiens (Human), UniProt P45452). The experiment in a line: MMP selectivity assay MMP-13. On the procedure:
as §1, §2, §3

Another test deals with recombinant human MMP-14 (Homo sapiens (Human), UniProt P50281). The experiment in a line: MMP selectivity assay MMP-14. On the procedure: as §1, §2, §3
Where [2] appears, read: readout at 30 minutes, read-out: MMP-12 IC50.
Setting [3] is: Table 2 selectivity profile, read-out: MMP-12 activity (IC50).

Where two headings read alike, the source gives them in different places. A value given as a limit tells only on which side of the number the result lay.

Chain of recombinant human MMP-3 (P08254 100-477): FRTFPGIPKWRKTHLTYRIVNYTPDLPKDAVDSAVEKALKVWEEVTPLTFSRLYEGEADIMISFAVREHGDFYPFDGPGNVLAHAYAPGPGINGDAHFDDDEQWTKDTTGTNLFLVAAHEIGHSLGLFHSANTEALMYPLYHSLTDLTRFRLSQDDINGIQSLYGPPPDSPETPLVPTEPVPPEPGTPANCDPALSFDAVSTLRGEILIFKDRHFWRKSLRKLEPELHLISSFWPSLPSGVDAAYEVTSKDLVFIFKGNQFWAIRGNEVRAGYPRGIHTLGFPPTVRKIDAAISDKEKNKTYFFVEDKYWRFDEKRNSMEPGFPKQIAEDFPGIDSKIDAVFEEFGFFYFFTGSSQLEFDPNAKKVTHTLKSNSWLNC
Chain of recombinant human MMP-10 (P09238 99-476): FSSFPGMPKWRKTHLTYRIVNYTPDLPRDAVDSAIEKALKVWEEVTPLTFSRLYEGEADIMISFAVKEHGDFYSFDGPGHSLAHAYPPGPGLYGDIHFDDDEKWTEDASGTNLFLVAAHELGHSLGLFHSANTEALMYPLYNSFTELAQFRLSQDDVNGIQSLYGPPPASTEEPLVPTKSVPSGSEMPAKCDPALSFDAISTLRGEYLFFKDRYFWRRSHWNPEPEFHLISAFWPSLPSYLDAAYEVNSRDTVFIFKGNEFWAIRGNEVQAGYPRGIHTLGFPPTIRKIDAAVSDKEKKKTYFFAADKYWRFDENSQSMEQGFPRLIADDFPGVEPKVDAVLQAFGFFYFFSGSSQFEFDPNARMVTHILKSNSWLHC
Chain of recombinant human MMP-8 (P22894 101-467): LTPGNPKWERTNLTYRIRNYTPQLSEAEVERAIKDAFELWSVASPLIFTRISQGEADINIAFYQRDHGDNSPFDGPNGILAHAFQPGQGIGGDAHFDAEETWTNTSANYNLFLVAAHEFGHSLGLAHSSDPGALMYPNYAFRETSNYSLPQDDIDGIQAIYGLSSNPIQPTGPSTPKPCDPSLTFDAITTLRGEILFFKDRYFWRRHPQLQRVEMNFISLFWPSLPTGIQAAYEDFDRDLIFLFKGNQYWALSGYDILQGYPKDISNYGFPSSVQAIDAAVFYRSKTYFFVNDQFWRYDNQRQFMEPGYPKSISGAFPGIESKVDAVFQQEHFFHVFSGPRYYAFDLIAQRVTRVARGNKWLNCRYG
Chain of recombinant human MMP-9 (P14780 94-707): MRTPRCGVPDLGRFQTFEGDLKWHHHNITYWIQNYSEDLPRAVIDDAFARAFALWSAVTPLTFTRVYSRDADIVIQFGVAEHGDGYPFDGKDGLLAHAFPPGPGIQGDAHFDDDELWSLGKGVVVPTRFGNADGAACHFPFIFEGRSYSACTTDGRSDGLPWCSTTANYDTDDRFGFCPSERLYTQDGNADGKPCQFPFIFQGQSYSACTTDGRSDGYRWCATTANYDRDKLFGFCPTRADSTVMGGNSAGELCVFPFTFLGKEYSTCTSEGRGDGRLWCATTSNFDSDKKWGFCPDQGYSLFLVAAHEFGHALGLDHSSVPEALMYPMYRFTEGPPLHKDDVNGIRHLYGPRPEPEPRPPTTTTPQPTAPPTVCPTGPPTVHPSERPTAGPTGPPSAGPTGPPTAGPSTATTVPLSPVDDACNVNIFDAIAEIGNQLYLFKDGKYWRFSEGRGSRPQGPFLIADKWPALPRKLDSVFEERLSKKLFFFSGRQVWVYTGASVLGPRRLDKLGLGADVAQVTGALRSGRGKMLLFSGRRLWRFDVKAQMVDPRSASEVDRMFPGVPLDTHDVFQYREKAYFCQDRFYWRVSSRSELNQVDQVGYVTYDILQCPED
Chain of recombinant human MMP-1 (P03956 100-469): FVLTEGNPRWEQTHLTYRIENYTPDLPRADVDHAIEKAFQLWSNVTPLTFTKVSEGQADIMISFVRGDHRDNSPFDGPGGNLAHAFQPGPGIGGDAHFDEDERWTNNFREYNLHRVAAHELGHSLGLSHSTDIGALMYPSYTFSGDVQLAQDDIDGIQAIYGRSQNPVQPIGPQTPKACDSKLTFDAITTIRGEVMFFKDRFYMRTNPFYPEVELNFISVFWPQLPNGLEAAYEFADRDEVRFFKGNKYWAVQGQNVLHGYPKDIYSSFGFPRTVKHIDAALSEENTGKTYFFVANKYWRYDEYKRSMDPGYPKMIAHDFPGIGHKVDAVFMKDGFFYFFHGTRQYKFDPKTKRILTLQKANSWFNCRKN
Chain of recombinant human MMP-12 catalytic domain (P39900 106-263): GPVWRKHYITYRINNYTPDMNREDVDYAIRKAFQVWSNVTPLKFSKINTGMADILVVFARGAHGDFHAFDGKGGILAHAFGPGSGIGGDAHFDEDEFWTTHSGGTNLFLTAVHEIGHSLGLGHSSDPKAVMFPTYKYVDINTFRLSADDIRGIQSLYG
Chain of recombinant human MMP-2 (P08253 110-660): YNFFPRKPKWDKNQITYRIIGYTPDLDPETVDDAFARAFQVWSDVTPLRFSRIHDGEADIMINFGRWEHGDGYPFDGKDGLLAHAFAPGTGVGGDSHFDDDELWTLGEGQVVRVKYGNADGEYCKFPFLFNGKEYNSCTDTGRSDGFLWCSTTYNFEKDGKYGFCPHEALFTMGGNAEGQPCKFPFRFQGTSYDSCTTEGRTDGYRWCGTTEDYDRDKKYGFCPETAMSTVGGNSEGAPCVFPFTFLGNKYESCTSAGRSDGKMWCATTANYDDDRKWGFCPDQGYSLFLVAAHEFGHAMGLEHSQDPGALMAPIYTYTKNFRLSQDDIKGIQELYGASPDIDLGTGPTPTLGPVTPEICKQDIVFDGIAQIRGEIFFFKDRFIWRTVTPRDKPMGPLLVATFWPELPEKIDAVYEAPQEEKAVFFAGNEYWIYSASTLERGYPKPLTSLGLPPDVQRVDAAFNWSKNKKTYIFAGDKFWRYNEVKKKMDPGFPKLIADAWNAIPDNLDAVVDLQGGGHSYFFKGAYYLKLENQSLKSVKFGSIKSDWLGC

For orientation: IC50 means the concentration needed to halve the response being measured. For the compound `Cc1ccnc(COc2ccc(Sc3ccoc3C3NC(=O)NC3=O)cc2)c1` (stereo not shown) [FC-1], the IC50 in test [1] (setting [2]) is 100 to 1000 nM.

`Cc1cccc(COc2ccc(Sc3ccoc3C3NC(=O)NC3=O)cc2)n1` (stereo not shown) [FC-2]: in [1] (setting [2]), the IC50 is 10 to 100 nM.

With `Cc1cncc(COc2ccc(Sc3ccoc3C3NC(=O)NC3=O)cc2)c1` (stereo not shown) [FC-3], in [1] (setting [2]), the half-maximal inhibitory concentration (IC50) was in the range of 10 to 100 nM.

In the case of `Cc1cccc(COc2ccc(Sc3ccoc3C3NC(=O)NC3=O)cc2)[n+]1O` (stereo not shown) [FC-5], the IC50 in [1] (setting [2]) was more than 1000 nM.

For `Cc1cc(COc2ccc(Sc3ccoc3C3NC(=O)NC3=O)cc2)c[n+]([O-])c1` (stereo not shown) [FC-6], the IC50 in test [1] (setting [2]) lay in the range of 100 to 1000 nM.

Turning to `Cc1cc(COc2ccc(Sc3ccoc3C3NC(=O)NC3=O)cc2)cc[n+]1[O-]` (stereo not shown) [FC-7], in [1] (setting [2]), the half-maximal inhibitory concentration (IC50) is 10 to 100 nM.

For the compound `Cc1cccc(COc2ccc(Sc3ccoc3C3(C)NC(=O)NC3=O)cc2)c1` (stereo not shown) [FC-8], the IC50 in test [1] (setting [2]) was less than 10 nM.

For the compound `CCC1(c2occc2Sc2ccc(OCc3cccc(C)c3)cc2)NC(=O)NC1=O` (stereo not shown) [FC-9], the IC50 in test [1] (setting [2]) lay in the range of 10 to 100 nM.

In the case of `Cc1cccc(COc2ccc(Sc3ccoc3C3(CC(C)C)NC(=O)NC3=O)cc2)c1` (stereo not shown) [FC-10], the IC50 in test [1] (setting [3]) is less than 10 nM; in [1] (setting [2]), less than 10 nM; at recombinant human MMP-1, more than 10 µM; on recombinant human MMP-2, 1000 to 10000 nM; at recombinant human MMP-3, 100 to 1000 nM; at recombinant human MMP-7, more than 10 µM. For the same compound, the IC50 is 1000 to 10000 nM on recombinant human MMP-8; 1 to 10 µM at recombinant human MMP-9; 1000 to 10000 nM at recombinant human MMP-10; 1000 to 10000 nM on recombinant human MMP-13; 1 to 10 µM at recombinant human MMP-14.

Turning to `CCCC1(c2occc2Sc2ccc(OCc3cccc(C)c3)cc2)NC(=O)NC1=O` (stereo not shown) [FC-11], the IC50 in [1] (setting [3]) was less than 10 nM; in test [1] (setting [2]), less than 10 nM; at recombinant human MMP-1, more than 10 µM; on recombinant human MMP-2, 1000 to 10000 nM; at recombinant human MMP-3, 100 to 1000 nM; at recombinant human MMP-7 it was more than 10 µM. The IC50 on recombinant human MMP-8 was 1000 to 10000 nM; at recombinant human MMP-9, 1 to 10 µM; at recombinant human MMP-10, 1000 to 10000 nM; on recombinant human MMP-13, 1000 to 10000 nM; on recombinant human MMP-14 it was 1 to 10 µM.

`Cc1cccc(COc2ccc(Sc3ccoc3C3(C(C)C)NC(=O)NC3=O)cc2)c1` (stereo not shown) [FC-12]: the IC50 in [1] (setting [2]) is less than 10 nM.

For the compound `COc1cc(COc2ccc(Sc3ccoc3C3NC(=O)NC3=O)cc2)ccn1` (stereo not shown) [FC-13], the half-inhibitory concentration (IC50) in [1] (setting [2]) was in the range of 10 to 100 nM.

`CCOc1cc(COc2ccc(Sc3ccoc3C3NC(=O)NC3=O)cc2)ccn1` (stereo not shown) [FC-14]: in test [1] (setting [2]), the IC50 is 10 to 100 nM.

Regarding `CC(C)COc1cc(COc2ccc(Sc3ccoc3C3NC(=O)NC3=O)cc2)ccn1` (stereo not shown) [FC-15], the IC50 in test [1] (setting [2]) was 100 to 1000 nM.

For `CC(C)Oc1cc(COc2ccc(Sc3ccoc3C3NC(=O)NC3=O)cc2)ccn1` (stereo not shown) [FC-16], the IC50 in test [1] (setting [2]) lay in the range of 100 to 1000 nM.

As for `NC(=O)c1cccc(COc2ccc(Sc3ccoc3C3NC(=O)NC3=O)cc2)c1` (stereo not shown) [FC-17], the 50% inhibitory concentration (IC50) in test [1] (setting [3]) is less than 10 nM; in test [1] (setting [2]), less than 10 nM; at recombinant human MMP-1, more than 10 µM; at recombinant human MMP-2, 100 to 1000 nM; at recombinant human MMP-3, 100 to 1000 nM; at recombinant human MMP-7 it was more than 10 µM. For the same compound, the IC50 at recombinant human MMP-8 lay in the range of 100 to 1000 nM; at recombinant human MMP-9 it was 1 to 10 µM; at recombinant human MMP-10, 100 to 1000 nM; at recombinant human MMP-13, 100 to 1000 nM; at recombinant human MMP-14 it was 1 to 10 µM.

With `NC(=O)c1ccc(COc2ccc(Sc3ccoc3C3NC(=O)NC3=O)cc2)cc1` (stereo not shown) [FC-18], the IC50 in test [1] (setting [2]) lay within 10 to 100 nM.

For `CCOc1cccc(COc2ccc(Sc3ccoc3C3NC(=O)NC3=O)cc2)c1` (stereo not shown) [FC-20], the IC50 in test [1] (setting [2]) lay within 100 to 1000 nM.

With `CC(C)Oc1cccc(COc2ccc(Sc3ccoc3C3NC(=O)NC3=O)cc2)c1` (stereo not shown) [FC-21], the IC50 in test [1] (setting [2]) lay in the range of 100 to 1000 nM.

As for `CCCOc1cccc(COc2ccc(Sc3ccoc3C3NC(=O)NC3=O)cc2)c1` (stereo not shown) [FC-22], in test [1] (setting [2]), the IC50 is more than 1000 nM.

Regarding `O=C1NC(=O)C(c2occc2Sc2ccc(OCc3cccc(CO)c3)cc2)N1` (stereo not shown) [FC-23], the IC50 in [1] (setting [3]) was less than 10 nM; in [1] (setting [2]) it was less than 10 nM; on recombinant human MMP-1, more than 10 µM; on recombinant human MMP-2, 100 to 1000 nM; on recombinant human MMP-3 it was 1000 to 10000 nM; on recombinant human MMP-7, more than 10 µM. Besides, the IC50 on recombinant human MMP-8 was in the range of 1000 to 10000 nM; on recombinant human MMP-9 it was 1 to 10 µM; at recombinant human MMP-10, 1000 to 10000 nM; at recombinant human MMP-13, 1000 to 10000 nM; at recombinant human MMP-14 it was 1 to 10 µM.

For `O=C1NC(=O)C(c2occc2Sc2ccc(OCc3ccccc3CO)cc2)N1` (stereo not shown) [FC-24], the IC50 in [1] (setting [2]) is less than 10 nM.

For `O=C1NC(=O)C(c2occc2Sc2ccc(OCc3ccc(CO)cc3)cc2)N1` (stereo not shown) [FC-25], in [1] (setting [2]), the IC50 was less than 10 nM.

Take `O=C1NC(=O)C(c2occc2Sc2ccc(OCc3cccc(O)c3)cc2)N1` (stereo not shown) [FC-26]: the IC50 in test [1] (setting [2]) was less than 10 nM.

Turning to `Cc1cc(Sc2ccc(OCc3cccc(CO)c3)cc2)c(C2NC(=O)NC2=O)o1` (stereo not shown) [FC-27], the IC50 is less than 10 nM in test [1] (setting [3]); less than 10 nM in [1] (setting [2]); more than 10 µM at recombinant human MMP-1; 100 to 1000 nM at recombinant human MMP-2; 100 to 1000 nM at recombinant human MMP-3; more than 10 µM at recombinant human MMP-7. The IC50 was 100 to 1000 nM at recombinant human MMP-8; 1 to 10 µM at recombinant human MMP-9; 100 to 1000 nM on recombinant human MMP-10; 100 to 1000 nM at recombinant human MMP-13; 1 to 10 µM at recombinant human MMP-14.

With `Cc1cccc(COc2ccc(Sc3cc(C)oc3C3NC(=O)NC3=O)cc2)c1` (stereo not shown) [FC-28], in [1] (setting [2]), the IC50 was in the range of 10 to 100 nM.

For `NC(=O)c1cc(COc2ccc(Sc3ccoc3C3NC(=O)NC3=O)cc2)ccn1` (stereo not shown) [FC-29], the IC50 in test [1] (setting [2]) was in the range of 10 to 100 nM.

For the compound `CCC1(c2occc2Sc2ccc(OCc3ccnc(C)c3)cc2)NC(=O)NC1=O` (stereo not shown) [FC-32], the IC50 in [1] (setting [2]) is less than 10 nM.

Consider `Cc1cc(CN(C)c2ccc(Sc3ccoc3C3NC(=O)NC3=O)cc2)ccn1` (stereo not shown) [FC-33], for which the IC50 in [1] (setting [2]) is more than 1000 nM.
